Data from ChEMBL document CHEMBL1201862, “PubChem BioAssay data set” (2004).
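96-well plates; 48 h exposure; 5 concentrations. Endpoints by linear interpolation between flanking doses. Not reached: highest tested concentration assigned. At the GI50, growth is halved.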 Calls of active or inactive are those of the source. Rule as the data show it: active = GI50 up to about 1.1 µM and inactive = higher.

How the values were obtained:
Assay in all cases: inhibition of tumour cell growth, NCI panel, 48 h
[1] = tested on: ACHN
[2] = tested on: HCT-116
[3] = tested on: HCT-15
[4] = tested on: HL-60
[5] = tested on: HOP-18
[6] = tested on: HOP-92
[7] = tested on: LOX IMVI
[8] = tested on: MOLT-4
[9] = tested on: SK-MEL-28
[10] = tested on: SK-MEL-2
[11] = tested on: SNB-75
[12] = tested on: TK-10
[13] = tested on: U-251
[14] = tested on: EKVX
[15] = tested on: IGROV-1
[16] = tested on: K562
[17] = tested on: OVCAR-3
[18] = tested on: MCF7
[19] = tested on: MDA-MB-231
[20] = tested on: MDA-MB-435

Row | SMILES | GI50 [1] | GI50 [2] | GI50 [3] [µM] | GI50 [4] | GI50 [5] | GI50 [6] | GI50 [7] | GI50 [8] | GI50 [9] | GI50 [10] | GI50 [11] | GI50 [12] | GI50 [13] | GI50 [14] | GI50 [15] | GI50 [16] | GI50 [17] | GI50 [18] | GI50 [19] | GI50 [20]
1 | Cc1ccc(NC(=O)c2cc3cc(/N=N/c4ccc(Br)cc4)ccc3oc2=O)cc1 | 53 µM (inactive) | 46.9 µM (inactive) | 46 | 23.4 µM (inactive) | < 0.01 µM (active) | > 100 µM (inactive) | > 100 µM (inactive) | 83 µM (inactive) | > 100 µM (inactive) | > 100 µM (inactive) | > 100 µM (inactive) | > 100 µM (inactive) | > 100 µM (inactive) |  |  |  |  |  |  | 
2 | Nc1nc(=O)n(C2CC(O)C(O)C(CO)O2)cc1F (stereo unspecified) | > 100 µM (inactive) | > 100 µM (inactive) | > 100 | > 100 µM (inactive) | > 100 µM (inactive) |  | > 100 µM (inactive) | > 100 µM (inactive) | > 100 µM (inactive) | > 100 µM (inactive) | > 100 µM (inactive) | > 100 µM (inactive) | > 100 µM (inactive) | > 100 µM (inactive) | > 100 µM (inactive) | > 100 µM (inactive) | > 100 µM (inactive) |  |  | 
3 | CCOC(=O)C1=C(c2ccccc2)N(C)c2ccccc2S1 | 24.1 µM (inactive) | 25.2 µM (inactive) | 14.6 | 37.4 µM (inactive) |  | 44.5 µM (inactive) | 16.7 µM (inactive) | 32.4 µM (inactive) | 38.9 µM (inactive) | 23.2 µM (inactive) | 38.6 µM (inactive) | 46.5 µM (inactive) | 19.8 µM (inactive) | 32 µM (inactive) | 32.4 µM (inactive) | 36.8 µM (inactive) | 36 µM (inactive) | 36 µM (inactive) | 29.6 µM (inactive) | 33.2 µM (inactive)
4 | Clc1ccc(C2=C(c3ccccc3)C(c3ccc(Cl)cc3)N3C(=N[C@H]4CCCC[C@@H]43)N2)cc1 (stereo partly specified) | 11.2 µM (inactive) | 4.08 µM (inactive) | 5.96 | 3.19 µM (inactive) |  | 9.59 µM (inactive) | 11.8 µM (inactive) | 4.46 µM (inactive) | 13.7 µM (inactive) | 16.4 µM (inactive) | 15.2 µM (inactive) | 10.5 µM (inactive) | 11.3 µM (inactive) | 12.4 µM (inactive) | 12.9 µM (inactive) | 2.3 µM (inactive) | 13.8 µM (inactive) | 7.06 µM (inactive) | 14.9 µM (inactive) | 14.5 µM (inactive)
5 | CC1(C)Oc2ccccc2OC1O (stereo unspecified) | > 100 µM (inactive) | > 100 µM (inactive) | > 100 | > 100 µM (inactive) |  | > 100 µM (inactive) | > 100 µM (inactive) | > 100 µM (inactive) | > 100 µM (inactive) | > 100 µM (inactive) | > 100 µM (inactive) | > 100 µM (inactive) | > 100 µM (inactive) | > 100 µM (inactive) | > 100 µM (inactive) | > 100 µM (inactive) | > 100 µM (inactive) | > 100 µM (inactive) | > 100 µM (inactive) | > 100 µM (inactive)
6 | CCOC(=O)/C=C(/C(=O)OCC)n1ccc(=O)n(CC(=O)OCC)c1=O | 0.57 µM (active) | 1.01 µM (active) | 0.463 | 0.143 µM (active) |  | 0.251 µM (active) | 0.869 µM (active) | 0.243 µM (active) | 1.68 µM (inactive) | 4.65 µM (inactive) | 2.48 µM (inactive) | 1.23 µM (inactive) | 2.56 µM (inactive) | 1.89 µM (inactive) | 1.61 µM (inactive) | 0.348 µM (active) | 1.1 µM (active) | 0.471 µM (active) | 2.04 µM (inactive) | 1.64 µM (inactive)
7 | CCOC(=O)NC(=O)c1cn(CCCOC(=O)CCCCCCCCC(=O)OCCCn2cc(C(=O)NC(=O)OCC)c(=O)[nH]c2=O)c(=O)[nH]c1=O | 21.1 µM (inactive) | 24.2 µM (inactive) | 19.5 | 5.14 µM (inactive) | 29.1 µM (inactive) |  | 16.4 µM (inactive) | 19 µM (inactive) | 16.4 µM (inactive) |  | 32.5 µM (inactive) | 22.3 µM (inactive) | 16.7 µM (inactive) | 38.1 µM (inactive) | 20.9 µM (inactive) | 4.01 µM (inactive) | 15.8 µM (inactive) |  |  | 
8 | CCOP1(=O)C=C(C)C(=C(Cl)Cl)C(C)=C1 (stereo unspecified) | 17.1 µM (inactive) | 2.51 µM (inactive) | 8.79 | 3.33 µM (inactive) | 13.8 µM (inactive) |  | 4.36 µM (inactive) | 5.64 µM (inactive) | 22.5 µM (inactive) | 3.72 µM (inactive) | 3.33 µM (inactive) | 21.3 µM (inactive) | 13.9 µM (inactive) | 18.9 µM (inactive) | 24 µM (inactive) | 3.52 µM (inactive) | 20.6 µM (inactive) |  |  | 
